Reference: BindingDB's records for doi:10.1016/j.bmcl.2006.12.084 (Gsk, 2007)

Each molecule was assayed against Free fatty acid receptor 1 (Homo sapiens, UniProt O14842) (assay: 96-Well Adherent Reporter Cell Assay). Conditions: 22 °C.
Chain of Free fatty acid receptor 1 (O14842 whole entry, the tested form may be a part): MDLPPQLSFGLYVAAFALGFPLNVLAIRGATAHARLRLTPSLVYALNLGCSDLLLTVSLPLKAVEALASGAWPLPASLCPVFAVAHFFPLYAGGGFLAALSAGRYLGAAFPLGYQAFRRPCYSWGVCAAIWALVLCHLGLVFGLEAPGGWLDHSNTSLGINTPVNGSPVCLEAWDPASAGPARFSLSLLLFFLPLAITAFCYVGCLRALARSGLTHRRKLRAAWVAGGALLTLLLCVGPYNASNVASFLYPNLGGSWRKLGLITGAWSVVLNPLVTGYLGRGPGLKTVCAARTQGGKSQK
Description: The reporter assay for the stable hGPR40-Gal4-Elk1/5xGal4-luc+-expressing CHO cells was first carried out in the serum-free medium in the presence of test ligand for 5h. The medium was then removed and replaced with 1:1 mixture of LucPlusTM (PerkinElmer Life Sciences) and Dulbecco phosphate buffered saline containing 1 mM CaCl2 and 1 mM MgCl2. Plates were incubated in the dark at room temperature for 10 min before luciferase activity was determined using a TopCountTM microplate scintillation counter (PerkinElmer Life Sciences) at a count time of 3 s/well.
An EC50 of over 31.6 µM was found for `CC(C(=O)O)c1ccc(NCc2ccc(-c3ccccc3)cc2)cc1` (configuration not stated) [2-(4-{[(4-phenylphenyl)methyl]amino}phenyl)propanoic acid] in this work.
An EC50 of 2 µM was found for `O=C(O)CCc1ccc(NCc2ccc(Cl)s2)cc1` [3-(4-{[(5-chlorothiophen-2-yl)methyl]amino}phenyl)propanoic acid] in this work.
An EC50 of 2 µM was found for `O=C(O)CCc1ccc(NCc2ccc(C(F)(F)F)cc2)cc1` [3-[4-({[4-(trifluoromethyl)phenyl]methyl}amino)phenyl]propanoic acid] in this work.
An EC50 of over 31.6 µM was found for `O=C(O)CCc1ccc(NCc2cccnc2)cc1` [3-{4-[(pyridin-3-ylmethyl)amino]phenyl}propanoic acid] in this work.
An EC50 of over 31.6 µM was found for `CN(C)Cc1ccc(CNc2ccc(CCC(=O)O)cc2)cc1` [3-{4-[({4-[(dimethylamino)methyl]phenyl}methyl)amino]phenyl}propanoic acid] in this work.

Same assay, conditions: 25 °C
An EC50 of over 31.6 µM was found for `NC(=O)c1cccc(CNc2ccc(CCC(=O)O)cc2)c1` [3-(4-{[(3-carbamoylphenyl)methyl]amino}phenyl)propanoic acid] in this work.
An EC50 of over 31.6 µM was found for `CS(=O)(=O)Nc1cccc(CNc2ccc(CCC(=O)O)cc2)c1` [3-(4-{[(3-methanesulfonamidophenyl)methyl]amino}phenyl)propanoic acid] in this work.
An EC50 of over 31.6 µM was found for `N#Cc1ccc(CNc2ccc(CCC(=O)O)cc2)cc1` [3-(4-{[(4-cyanophenyl)methyl]amino}phenyl)propanoic acid] in this work.
An EC50 of over 31.6 µM was found for `O=C(O)CCc1ccc(NCc2ccc(O)cc2)cc1` [3-(4-{[(4-hydroxyphenyl)methyl]amino}phenyl)propanoic acid] in this work.
An EC50 of over 31.6 µM was found for `O=C(O)CCc1ccc(NCc2ncc[nH]2)cc1` [3-{4-[(1H-imidazol-2-ylmethyl)amino]phenyl}propanoic acid] in this work.
An EC50 of over 31.6 µM was found for `O=C(O)CCc1ccc(NCc2ccc3c(c2)OCO3)cc1` [3-{4-[(2H-1,3-benzodioxol-5-ylmethyl)amino]phenyl}propanoic acid] in this work.
An EC50 of over 31.6 µM was found for `O=C(O)CCc1ccc(NCc2ccc(C(=O)O)cc2)cc1` [4-({[4-(2-carboxyethyl)phenyl]amino}methyl)benzoic acid] in this work.
